Data on 35 compounds can be found in patent US10112955B2, “Isoindoline, azaisoindoline, dihydroindenone and dihydroazaindenone inhibitors of Mnk1 and Mnk2” (eFFECTOR THERAPEUTICS, INC., priority 2015, dated 2018).

Read-outs that look alike come from different tables or passages of the source. Some results are limits rather than exact numbers.

Assay [1] has as its target MNK1 (Homo sapiens (Human), UniProt Q9BUB5). The assay can be described thus: MNK Biochemical Enzymatic Assay (ADP-Glo), MNK1. How it is done: (§1) Compounds are screened for MNK inhibition using the ADP-Glo kinase assay kit (Promega, catalogue No. V9101). All kinase reactions are performed in Reaction Buffer E (15 mM HEPES pH7.4, 20 mM NaCl, 1 mM EGTA, 10 mM MgCl2, 0.1 mg/ml BGG, and 0.02% Tween-20). […] Final DMSO concentration in each reaction is 1%.
(§2) Kinase reactions are carried out in 96-well half-area white flat-bottom polystyrene plates in a final volume of 25 μl. MNK1/2 enzymes are pre-incubated with compound and peptide substrate for 5 minutes prior to the addition of ATP. After the addition of ATP, kinase reactions are incubated at room temperature for 40 minutes. Reactions are subsequently stopped by the addition of 25 μl of ADP-Glo Reagent and incubating for an additional 40 minutes. The final luminescent signal used for kinase activity readout is produced by the addition of 45 μl of Kinase Detection Reagent (ADP-Glo kit, Promega) and incubating for 40 minutes.

For assay [2], the target named is MNK2 (Homo sapiens (Human), UniProt Q9HBH9). Put plainly: MNK Biochemical Enzymatic Assay (ADP-Glo), MNK2. The note with it: 3 nM recombinant MNK2, 50 μM substrate peptide, 10 μM ATP. As to the method:
as §1, §2

Assay [3] has as its system Phosphorylated eIF4E. Put plainly: peIF4E Signaling Cellular Assay (CisBio peIF4E HTRF). The class given is cell-based. The note with it: cells incubated with compound for 2 hrs at 37° C., 12-point curve. As to the method: Phosphorylated eIF4E is assayed using the CisBio peIF4E HTRF® assay kit (CisBio, catalogue No. 64EF4PEG). Cells are plated in 96-well tissue-culture treated plate in appropriate growth medium (90 μL). Compounds (10×) are diluted using 3-fold serial dilutions in cell culture medium and added to cells. Plates are incubated for 2 hrs at 37° C. The cell supernatant is carefully removed either by aspirating supernatant or by flicking the plate. Immediately 50 μL of supplemented lysis buffer (1×) is added and incubated for at least 30 minutes at room temperature under shaking. After homogenization by pipeting up and down, 16 μL of cell lysate is transferred from the 96-well cell-culture plate to a 384-well small volume white plate. 4 μL of premixed antibody solutions (vol/vol) is prepared in the detection buffer and added. The plate is covered with a plate sealer and incubated overnight at room temperature. The fluorescence emissions at two different wavelengths are read (665 nm and 620 nm) on a Wallac Victor2. Emission ratios are converted into percent inhibitions and imported into GraphPad Prism software. […] IC50 values are determined using a nonlinear regression model available in GraphPad Prism 5.

The mark [4] stands for this setting: 10 nM recombinant MNK1, 100 μM substrate peptide, 300 μM ATP, read-out: IC50 Mnk1.

Sequence of MNK1 (Q9BUB5 whole entry): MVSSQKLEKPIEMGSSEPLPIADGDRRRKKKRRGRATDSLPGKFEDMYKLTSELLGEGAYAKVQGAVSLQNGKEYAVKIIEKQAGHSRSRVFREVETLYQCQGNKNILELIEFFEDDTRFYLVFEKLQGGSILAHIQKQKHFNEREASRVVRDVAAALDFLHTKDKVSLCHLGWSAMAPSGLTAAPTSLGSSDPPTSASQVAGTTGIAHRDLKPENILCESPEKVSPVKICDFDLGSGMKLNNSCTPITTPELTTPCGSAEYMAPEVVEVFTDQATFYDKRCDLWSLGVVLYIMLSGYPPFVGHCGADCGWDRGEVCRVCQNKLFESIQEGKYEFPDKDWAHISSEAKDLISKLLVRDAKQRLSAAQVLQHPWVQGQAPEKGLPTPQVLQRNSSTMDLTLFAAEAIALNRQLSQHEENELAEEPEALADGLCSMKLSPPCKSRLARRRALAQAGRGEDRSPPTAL
Sequence of MNK2 (Q9HBH9 whole entry): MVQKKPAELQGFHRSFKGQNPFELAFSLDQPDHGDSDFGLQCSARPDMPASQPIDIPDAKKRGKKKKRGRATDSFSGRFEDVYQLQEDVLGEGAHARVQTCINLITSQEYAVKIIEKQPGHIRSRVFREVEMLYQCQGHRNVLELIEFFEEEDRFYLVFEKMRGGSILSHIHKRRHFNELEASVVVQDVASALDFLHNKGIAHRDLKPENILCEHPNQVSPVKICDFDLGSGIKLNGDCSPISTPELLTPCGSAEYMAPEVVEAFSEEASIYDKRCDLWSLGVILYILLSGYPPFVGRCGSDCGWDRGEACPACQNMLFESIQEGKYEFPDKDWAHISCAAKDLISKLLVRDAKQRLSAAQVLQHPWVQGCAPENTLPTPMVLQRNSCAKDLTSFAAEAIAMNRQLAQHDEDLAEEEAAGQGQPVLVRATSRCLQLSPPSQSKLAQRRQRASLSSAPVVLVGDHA

Take `O=C1NCc2cc(Nc3cc(Cl)ncn3)ccc21` [Cpd. No. 4, 5-((6-chloropyrimidin-4-yl)amino)isoindolin-1-one]: the 50% inhibitory concentration (IC50) in assay [1] (setting [4]) lay in the range of 0.1 to 10 µM.

As for `O=C1NCc2cc(Nc3ccncn3)ccc21` [Cpd. No. 3, 5-(pyrimidin-4-ylamino)isoindolin-1-one], the half-inhibitory concentration (IC50) in assay [1] (setting [4]) was 0.1 to 10 µM.

With `O=C1CCc2cc(Nc3ccncn3)ccc21` [Cpd. No. 5, 5-(pyrimidin-4-ylamino)-2,3-dihydro-1H-inden-1-one], the 50% inhibitory concentration (IC50) in assay [1] (setting [4]) fell in the range of 0.1 to 10 µM.

On to `CC1NC(=O)c2ccc(Nc3ncnc4c3CCN4)cc21` (stereo not shown) [Cpd. No. 39, 5-(6,7-dihydro-5H-pyrrolo[2,3-d]pyrimidin-4-ylamino)-3-methyl-isoindolin-1-one], for which the values for the half-maximal inhibitory concentration (IC50) in assay [1] (setting [4]), in assay [2] and in assay [3] were 0.01 to 0.1 µM, 0.1 to 10 µM and 1 to 100 µM, respectively.

For the compound `CC1(C)NC(=O)c2ccc(Nc3ccncn3)cc21` [Cpd. No. 15, 3,3-dimethyl-5-(pyrimidin-4-ylamino)isoindolin-1-one], the 50% inhibitory concentration (IC50) lay within 0.1 to 10 µM in assay [1] (setting [4]), 0.01 to 0.1 µM in assay [2] and 1 to 100 µM in assay [3].

For the compound `CC1NC(=O)c2ccc(Nc3ncnc4c3CC(=O)N4)cc21` (stereo not shown) [Cpd. No. 41, 4-[(3-methyl-1-oxo-isoindolin-5-yl)amino]-5,7-dihydropyrrolo[2,3-d]pyrimidin-6-one], the IC50 in assay [2] was 0.1 to 10 µM.

For `O=C1NCCc2cc(Nc3ccncn3)ccc21` [Cpd. No. 10, 6-(pyrimidin-4-ylamino)-3,4-dihydroisoquinolin-1(2H)-one], the concentration for half-maximal inhibition (IC50) in assay [1] (setting [4]) is 0.01 to 0.1 µM; in assay [2], 0.01 to 0.1 µM; in assay [3], 1 to 100 µM.

On to `Cc1cc(Nc2cc(N)ncn2)cc2c1C(=O)NC21CCCC1` [Cpd. No. 47, 6′-((6-aminopyrimidin-4-yl)amino)-4′-methylspiro[cyclopentane-1,1′-isoindolin]-3′-one], for which the figures for the IC50 in assay [2] and in assay [3] were less than 0.01 µM and 0.05 to 1 µM, respectively.

As for `CNc1cc(Nc2ccc3c(c2)C(C)NC3=O)ccn1` (stereo not shown) [Cpd. No. 25, 3-methyl-5-((2-(methylamino)pyridin-4-yl)amino) isoindolin-1-one], the IC50 in assay [2] lay in the range of 0.1 to 10 µM.

For `CC1Cc2cc(Nc3ccncn3)ccc2NC1=O` (stereo not shown) [Cpd. No. 21, 3-methyl-6-(pyrimidin-4-ylamino)-3,4-dihydroquinolin-2(1H)-one], the half-inhibitory concentration (IC50) in assay [2] lay within 0.1 to 10 µM.

For the compound `Cc1cc(Nc2ccc3c(c2)C(C)NC3=O)ncn1` (stereo not shown) [Cpd. No. 26, 3-methyl-5-((6-methylpyrimidin-4-yl)amino)isoindolin-1-one], the half-inhibitory concentration (IC50) in assay [2] lay in the range of 0.1 to 10 µM.

With `CC1(N)CC(=O)c2ccc(Nc3ccncn3)cc21` (stereo not shown) [Cpd. No. 30, 3-amino-3-methyl-5-(pyrimidin-4-ylamino)-2,3-dihydro-1H-inden-1-one], the half-maximal inhibitory concentration (IC50) in assay [2] is 0.1 to 10 µM.

With `NC1CC(=O)c2ccc(Nc3ccncn3)cc21` (stereo not shown) [Cpd. No. 28, 3-amino-5-(pyrimidin-4-ylamino)-2,3-dihydro-1H-inden-1-one], the IC50 in assay [2] fell in the range of 0.1 to 10 µM.

As for `CC1c2cc(Nc3ccncn3)ccc2C(=O)N1C` (stereo not shown) [Cpd. No. 20, 2,3-dimethyl-5-(pyrimidin-4-ylamino)isoindolin-1-one], the IC50 in assay [2] was 0.1 to 10 µM.

Regarding `CN1Cc2cc(Nc3ncnc4[nH]cnc34)ccc2C1=O` [Cpd. No. 2, 5-((9H-purin-6-yl)amino)-2-methylisoindolin-1-one], the 50% inhibitory concentration (IC50) in assay [1] (setting [4]) lay within 0.01 to 0.1 µM.

`O=c1[nH]sc2cc(Nc3ccncn3)ccc12` [Cpd. No. 27, 6-(pyrimidin-4-ylamino)benzo[d]isothiazol-3(2H)-one]: the IC50 in assay [2] was 0.1 to 10 µM.

With `CC1(N)CNC(=O)c2ccc(Nc3ccncn3)cc21` (stereo not shown) [Cpd. No. 32, 4-amino-4-methyl-6-(pyrimidin-4-ylamino)-3,4-dihydroisoquinolin-1(2H)-one], in assay [2], the IC50 was in the range of 0.1 to 10 µM.

As to `CC1(C)NC(=O)c2c(Cl)cc(Nc3ncnc(N)c3Cl)cc21` [Cpd. No. 50, 5-((6-amino-5-chloropyrimidin-4-yl)amino)-7-chloro-3,3-dimethylisoindolin-1-one], the 50% inhibitory concentration (IC50) in assay [2] is less than 0.01 µM; in assay [3] it was less than 0.05 µM.

Regarding `CCc1c(N)ncnc1Nc1cc(C)c2c(c1)C1(CCCCC1)NC2=O` [Cpd. No. 53, 6′-((6-amino-5-ethylpyrimidin-4-yl)amino)-4′-methylspiro[cyclohexane-1,1′-isoindolin]-3′-one], the half-inhibitory concentration (IC50) in assay [2] is less than 0.01 µM; in assay [3], 0.05 to 1 µM.

As to `O=C1NC2(CCCCC2)c2cc(Nc3ccncn3)cc(Cl)c21` [Cpd. No. 46, 4′-chloro-6′-(pyrimidin-4-ylamino)spiro[cyclohexane-1,1′-isoindolin]-3′-one], the figures for the IC50 in assay [2] and in assay [3] were less than 0.01 µM and less than 0.05 µM, respectively.

For `CC1NC(=O)c2ccc(Nc3cc(NC(=O)C(C)(C)C)ncn3)cc21` (stereo not shown) [Cpd. No. 18, N-(6-((3-methyl-1-oxoisoindolin-5-yl)amino)pyrimidin-4-yl)pivalamide], the 50% inhibitory concentration (IC50) in assay [2] lay in the range of 0.1 to 10 µM.

Take `CSc1cc(Nc2ccc3c(c2)C(C)NC3=O)ncn1` (stereo not shown) [Cpd. No. 16, 3-methyl-5-((6-(methylthio)pyrimidin-4-yl)amino)isoindolin-1-one]: the 50% inhibitory concentration (IC50) in assay [2] lay within 0.1 to 10 µM.

With `NC(=O)c1ccc2c(c1)ncn2-c1cc(N)ncn1` [Cpd. No. 49, 1-(6-aminopyrimidin-4-yl)-1H-benzo[d]imidazole-5-carboxamide], the IC50 lay within 0.01 to 0.1 µM in assay [2] and 1 to 100 µM in assay [3].

Take `CC1(C)NC(=O)c2ccc(Nc3cc(N)ncn3)c(Cl)c21` [Cpd. No. 52, 5-((6-aminopyrimidin-4-yl)amino)-4-chloro-3,3-dimethylisoindolin-1-one]: the half-inhibitory concentration (IC50) in assay [2] was less than 0.01 µM; in assay [3], 1 to 100 µM.

As to `O=C1NC(c2ccsc2)c2cc(Nc3ccncn3)ccc21` (stereo not shown) [Cpd. No. 37, 5-(pyrimidin-4-ylamino)-3-(thiophen-3-yl)isoindolin-1-one], the half-inhibitory concentration (IC50) in assay [1] (setting [4]) and in assay [2] was less than 0.01 µM in each case.

Regarding `O=C1NC2CC2c2cc(Nc3ccncn3)ccc21` (stereo not shown) [Cpd. No. 29, 6-(pyrimidin-4-ylamino)-1,1a,2,7b-tetrahydro-3H-cyclopropa[c]isoquinolin-3-one], the values for the IC50 in assay [2] and in assay [3] were 0.1 to 10 µM and 1 to 100 µM, respectively.

As to `Nc1cc(Nc2cc(Cl)c3c(c2)C2(CCCCC2)NC3=O)ncn1` [Cpd. No. 48, 6′-((6-aminopyrimidin-4-yl)amino)-4′-chlorospiro[cyclohexane-1,1′-isoindolin]-3′-one], the concentration for half-maximal inhibition (IC50) in assay [2] is less than 0.01 µM; in assay [3], less than 0.05 µM.

Regarding `COc1cncnc1Nc1cc(C)c2c(c1)C1(CCCCC1)NC2=O` [Cpd. No. 54, 6′-((5-methoxypyrimidin-4-yl)amino)-4′-methylspiro[cyclohexane-1,1′-isoindolin]-3′-one], the concentration for half-maximal inhibition (IC50) in assay [2] was less than 0.01 µM; in assay [3] it was less than 0.05 µM.

`O=C1NCc2cc(Nc3ncnc4[nH]cnc34)ccc21` [Cpd. No. 1, 5-((9H-purin-6-yl)amino)isoindolin-1-one]: in assay [1] (setting [4]), the IC50 is 0.01 to 0.1 µM.

On to `Cc1cc(Nc2cc(N)ncn2)cc2c1C(=O)NC2(C)C` [Cpd. No. 44, 5-((6-aminopyrimidin-4-yl)amino)-3,3,7-trimethylisoindolin-1-one], for which the concentration for half-maximal inhibition (IC50) in assay [2] was less than 0.01 µM; in assay [3], 0.05 to 1 µM.

`CCc1cncnc1Nc1cc(C)c2c(c1)C1(CCCCC1)NC2=O` [Cpd. No. 56, 6′-((5-ethylpyrimidin-4-yl)amino)-4′-methylspiro[cyclohexane-1,1′-isoindolin]-3′-one]: the 50% inhibitory concentration (IC50) in assay [2] lay within 0.01 to 0.1 µM; in assay [3], 0.05 to 1 µM.

Consider `Cc1cc(Nc2ncnc(N)c2C)c(O)c2c1C(=O)NC21CCCCC1` [Cpd. No. 93, 6′-((6-amino-5-methylpyrimidin-4-yl)amino)-7′-hydroxy-4′-methylspiro[cyclohexane-1,1′-isoindolin]-3′-one], for which the 50% inhibitory concentration (IC50) in assay [3] was in the range of 0.05 to 1 µM.

Take `Cc1cc(Nc2cc(N)ncn2)cc2c1C(=O)NC21CCCCC1` [Cpd. No. 51, 6′-((6-aminopyrimidin-4-yl)amino)-4′-methylspiro[cyclohexane-1,1′-isoindolin]-3′-one]: the IC50 in assay [2] was less than 0.01 µM; in assay [3], less than 0.05 µM.

Consider `Cn1cc(Nc2cc(Nc3ccc4c(c3)CNC4=O)ncn2)cn1` [Cpd. No. 6, 5-((6-((1-methyl-1H-pyrazol-4-yl)amino)pyrimidin-4-yl)amino)isoindolin-1-one], for which the IC50 in assay [1] lay in the range of 0.01 to 0.1 µM.

Regarding `Nc1ncnc(Nc2cc(Cl)c3c(c2)C2(CCCCC2)NC3=O)c1Cl` [Cpd. No. 59, 6′-((6-amino-5-chloropyrimidin-4-yl)amino)-4′-chlorospiro[cyclohexane-1,1′-isoindolin]-3′-one], the 50% inhibitory concentration (IC50) in assay [2] was less than 0.01 µM; in assay [3], less than 0.05 µM.

A word on the IC50: it is the point on the concentration scale where inhibition reaches its midpoint.
